# Experimental data published in US12351616B2, “Peptides and combination of peptides for use in immunotherapy against esophageal cancer and other cancers” (Immatics Biotechnologies GmbH, priority 2015, dated 2025).
# What was measured:
# CD8+ T cells = assay: In vitro T-cell priming assay with aAPCs loaded with peptide/MHC and anti-CD28, pMHC multimer readout; assay type: cell-based, human; details: for Wells positive [%]: Table 10B; for Donors: percentage of positive donors; for Donors / wells: Table 10A; for wells: percentage of positive wells
# Text: In order to obtain information regarding the immunogenicity of the TUMAPs of the present invention, the inventors performed investigations using an in vitro T-cell priming assay based on repeated stimulations of CD8+ T cells with artificial antigen presenting cells (aAPCs) loaded with peptide/MHC complexes and anti-CD28 antibody.
# In order to perform in vitro stimulations by artificial antigen presenting cells loaded with peptide-MHC complex (pMHC) and anti-CD28 antibody, the inventors first isolated CD8+ T cells from fresh HLA-A*02 leukapheresis products via positive selection using CD8 microbeads (Miltenyi Biotec, Bergisch-Gladbach, Germany) of healthy donors obtained from the University clinics Mannheim, Germany, after informed consent.
# PBMCs and isolated CD8+ lymphocytes were incubated in T-cell medium (TCM) until use consisting of RPMI-Glutamax (Invitrogen, Karlsruhe, Germany) supplemented with 10% heat inactivated human AB serum (PAN-Biotech, Aidenbach, Germany), 100 U/ml Penicillin/100 μg/ml Streptomycin (Cambrex, Cologne, Germany), 1 mM sodium pyruvate (CC Pro, Oberdorla, Germany), 20 μg/ml Gentamycin (Cambrex). 2.5 ng/ml IL-7 (PromoCell, Heidelberg, Germany) and 10 U/ml IL-2 (Novartis Pharma, Nurnberg, Germany) were also added to the TCM at this step.
# Generation of pMHC/anti-CD28 coated beads, T-cell stimulations and readout was performed in a highly defined in vitro system using four different pMHC molecules per stimulation condition and 8 different pMHC molecules per readout condition.
# The purified co-stimulatory mouse IgG2a anti human CD28 Ab 9.3 (Jung et al., 1987) was chemically biotinylated using Sulfo-N-hydroxysuccinimidobiotin as recommended by the manufacturer (Perbio, Bonn, Germany). Beads used were 5.6 μm diameter streptavidin coated polystyrene particles (Bangs Laboratories, Illinois, USA).
# 800.000 beads/200 μl were coated in 96-well plates in the presence of 4×12.5 ng different biotin-pMHC, washed and 600 ng biotin anti-CD28 were added subsequently in a volume of 200 μl. Stimulations were initiated in 96-well plates by co-incubating 1×10^6 CD8+ T cells with 2×10^5 washed coated beads in 200 μl TCM supplemented with 5 ng/ml IL-12 (PromoCell) for 3 days at 37° C. Half of the medium was then exchanged by fresh TCM supplemented with 80 U/ml IL-2 and incubating was continued for 4 days at 37° C. This stimulation cycle was performed for a total of three times. For the pMHC multimer readout using 8 different pMHC molecules per condition, a two-dimensional combinatorial coding approach was used as previously described (Andersen et al., 2012) with minor modifications encompassing coupling to 5 different fluorochromes. Finally, multimeric analyses were performed by staining the cells with Live/dead near IR dye (Invitrogen, Karlsruhe, Germany), CD8-FITC antibody clone SK1 (BD, Heidelberg, Germany) and fluorescent pMHC multimers. For analysis, a BD LSRII SORP cytometer equipped with appropriate lasers and filters was used. Peptide specific cells were calculated as percentage of total CD8+ cells. Evaluation of multimeric analysis was done using the FlowJo software (Tree Star, Oregon, USA). In vitro priming of specific multimer+CD8+ lymphocytes was detected by comparing to negative control stimulations.
# HLA-A*02:01 = HLA-A*02:01 (Homo sapiens, UniProt P04439, D140Y/D185E/D98H/E176V/E277Q/G131W/G231S/I119V/I121R/I166T/I218V/L300P/L318F/N151K/N90K/P208A/P217A/Q86G/Q94H/R138H/R169H/T345S); assay: MHC binding assay: UV-ligand exchange with β2m ELISA; details: peptide exchange yield, binding to HLA-A*02:01
# Text: Candidate peptides for T cell based therapies according to the present invention were further tested for their MHC binding capacity (affinity). The individual peptide-MHC complexes were produced by UV-ligand exchange, where a UV-sensitive peptide is cleaved upon UV-irradiation, and exchanged with the peptide of interest as analyzed. Only peptide candidates that can effectively bind and stabilize the peptide-receptive MHC molecules prevent dissociation of the MHC complexes. To determine the yield of the exchange reaction, an ELISA was performed based on the detection of the light chain (β2m) of stabilized MHC complexes. The assay was performed as generally described in Rodenko et al. (Rodenko et al., 2006).
# 96 well MAXISorp plates (NUNC) were coated over night with 2 ug/ml streptavidin in PBS at room temperature, washed 4× and blocked for 1 h at 37° C. in 2% BSA containing blocking buffer. Refolded HLA-A*02:01/MLA-001 monomers served as standards, covering the range of 15-500 ng/ml. Peptide-MHC monomers of the UV-exchange reaction were diluted 100 fold in blocking buffer. Samples were incubated for 1 h at 37° C., washed four times, incubated with 2 ug/ml HRP conjugated anti-β2m for 1 h at 37° C., washed again and detected with TMB solution that is stopped with […]. Absorption was measured at 450 nm. Candidate peptides that show a high exchange yield (preferably higher than 50%, most preferred higher than 75%) are generally preferred for a generation and production of antibodies or fragments thereof, and/or T cell receptors or fragments thereof, as they show sufficient avidity to the MHC molecules and prevent dissociation of the MHC complexes.
substance,measurement,setting,value
5 (NLMASQPQL; listed as Homo sapiens) [compound 5],Wells positive [%],CD8+ T cells,+++ (50%-69% = +++)
same,Peptide exchange,HLA-A*02:01,+++ (≥50 = +++)
47 (VLASGFLTV; listed as Homo sapiens) [compound 47],Wells positive [%],CD8+ T cells,+++ (50%-69% = +++)
same,Peptide exchange,HLA-A*02:01,++++ (≥75% = ++++)
95 (LIQDRVAEV; listed as Homo sapiens) [compound 95],Donors,CD8+ T cells,++ (20%-49% = ++)
same,wells,CD8+ T cells,+ (<20% = +)
19 (GLAPFLLNAV; listed as Homo sapiens) [compound 19],Wells positive [%],CD8+ T cells,+ (<20% = +)
same,Peptide exchange,HLA-A*02:01,+++ (≥50 = +++)
12 (GLASRILDA; listed as Homo sapiens) [compound 12],Wells positive [%],CD8+ T cells,+ (<20% = +)
same,Peptide exchange,HLA-A*02:01,+++ (≥50 = +++)
94 (TLLQEQGTKTV; listed as Homo sapiens) [compound 94],Donors,CD8+ T cells,++ (20%-49% = ++)
same,wells,CD8+ T cells,+ (<20% = +)
2 (SLYNLGGSKRISI; listed as Homo sapiens) [compound 2],Wells positive [%],CD8+ T cells,+ (<20% = +)
same,Peptide exchange,HLA-A*02:01,++++ (≥75% = ++++)
101 (AMTQLLAGV; listed as Homo sapiens) [compound 101],Donors,CD8+ T cells,+++ (50%-69% = +++)
same,wells,CD8+ T cells,++ (20%-49% = ++)
29 (SLDGTELQL; listed as Homo sapiens) [compound 29],Wells positive [%],CD8+ T cells,+ (<20% = +)
same,Peptide exchange,HLA-A*02:01,+++ (≥50 = +++)
6 (LLSGDLIFL; listed as Homo sapiens) [compound 6],Wells positive [%],CD8+ T cells,++ (20%-49% = ++)
same,Peptide exchange,HLA-A*02:01,+++ (≥50 = +++)
77 (VLVPYEPPQV; listed as Homo sapiens) [compound 77],Wells positive [%],CD8+ T cells,+ (<20% = +)
same,Peptide exchange,HLA-A*02:01,++ (≥20% = ++)
97 (ELDRTPPEV; listed as Homo sapiens) [compound 97],Donors,CD8+ T cells,++++ (>= 70% = ++++)
same,wells,CD8+ T cells,++ (20%-49% = ++)
98 (VLFPNLKTV; listed as Homo sapiens) [compound 98],Donors,CD8+ T cells,++++ (>= 70% = ++++)
same,wells,CD8+ T cells,+ (<20% = +)
1 (STYGGGLSV; listed as Homo sapiens) [compound 1],Wells positive [%],CD8+ T cells,+ (<20% = +)
same,Peptide exchange,HLA-A*02:01,+++ (≥50 = +++)
69 (GLLVGSEKVTM; listed as Homo sapiens) [compound 69],Wells positive [%],CD8+ T cells,+ (<20% = +)
same,Peptide exchange,HLA-A*02:01,+++ (≥50 = +++)
62 (ALYEYQPLQI; listed as Homo sapiens) [compound 62],Peptide exchange,HLA-A*02:01,++ (≥20% = ++)
90 (SIYEYYHAL; listed as Homo sapiens) [compound 90],Peptide exchange,HLA-A*02:01,+++ (≥50 = +++)
63 (LAYTLGVKQL; listed as Homo sapiens) [compound 63],Peptide exchange,HLA-A*02:01,+++ (≥50 = +++)
